Tests used:
[1] = biological target: T1, GABAA (α1β2γ2s) receptors (UniProt P14867+P18508+P63138); experiment: GABAA receptor two-electrode voltage clamp in oocytes at saturated drug concentration; format: cell-based, human α1, rat β2 and γ2s; conditions: for GABAA % Direct Effect: drug response without receptor agonist; for GABAA % Direct Effect / GABAA % Agonist Effect: percent of control agonist peak, mean ±SEM, 5-6 oocytes, saturated drug; for GABAA % Agonist Effect: drug with γ-aminobutyric acid; for GABAA Drug Response: drug+agonist versus control agonist peak
T1 construct: expressed in transfected cells; host or cells: Xenopus laevis oocytes (intranuclear plasmid injection, α1:β2:γ2 = 1:1:10)
Description: (§1) GABAA (α1β2γ2s) or NMDA (NR1/NR2A) receptors were expressed in oocytes and studied using standard two-electrode voltage clamp techniques. Hydrocarbons from 14 different organic functional groups were studied at saturated concentrations, and compounds within each group differed only by the carbon number at the ω-position or within a saturated ring. An effect on GABAA or NMDA receptors was defined as a 10% or greater reversible current change from baseline that was statistically different from zero.
(§2) An ovary from tricaine-anesthetized Xenopus laevis frogs was surgically removed using a protocol approved by the Institutional Animal Care and Use Committee at the University of California, Davis. Following manual disruption of the ovarian lobule septae, the ovary was incubated in 0.2% Type I collagenase (Worthington Biochemical, Lakewood, N.J.) to defolliculate oocytes which were washed and stored in fresh and filtered modified Barth's solution composed of 88 mM NaCl, 1 mM KCl, 2.4 mM NaHCO3, 20 mM HEPES, 0.82 mM MgSO4, 0.33 mM Ca(NO3)2, 0.41 mM CaCl2, 5 mM sodium pyruvate, gentamycin, penicillin, streptomycin, and corrected to pH=7.4. All salts and antibiotics were A.C.S. grade (Fisher Scientific, Pittsburgh, Pa.).
(§3) Clones used were provided as a gift from Dr. R. A. Harris (University of Texas, Austin) and were sequenced and compared to references in the National Center for Biotechnology Information database to confirm the identity of each gene. GABAA receptors were expressed using clones for the human GABAA α1 and the rat GABAA β2 and γ2s subunits in pCIS-II vectors. […] In separate oocytes, glutamate receptors were expressed using rat NMDA NR1 clones in a pCDNA3 vector and rat NMDA NR2A clones in a Bluescript vector. RNA encoding each subunit was prepared using a commercial transcription kit (T7 mMessage mMachine, Ambion, Austin, Tex.) was mixed in a 1:1 ratio, and 1-10 ng of total RNA was injected into oocytes and studied 1-2 days later.
Oocytes were studied in a 250 μL linear-flow perfusion chamber with solutions administered by syringe pump at 1.5 ml/min with gastight glass syringes and Teflon tubing. Oocyte GABAA currents were studied using standard two-electrode voltage clamping techniques at a holding potential of […] using a 250 μL channel linear-flow perfusion chamber with solutions administered by syringe pump at 1.5 mL/min.
After FR perfusion for 5 min, oocytes were exposed to 30 sec FR-GABA followed by another 5 min FR washout; this was repeated until stable GABAA-elicited peaks were obtained. Next, FR containing a saturated solution of the study drug (Table 2)—or for gaseous study compounds a vapor pressure equal to 90% of barometric pressure with balance oxygen—was used to perfuse the oocyte chamber for 2 min followed by perfusion with a FR-GABA solution containing the identical drug concentration for 30 sec.
(§4) Modulating drug responses were calculated as the percent of the control (baseline) peak as follows: 100·ID/IB, where ID and IB were the peak currents measured during agonist+drug and agonist baseline perfusions, respectively. When present, direct receptor activation by a drug was similarly calculated as a percent of the agonist response. […] A lack of receptor response (cut-off) was defined as a<10% change from baseline current that was statistically indistinguishable from zero using a two-tailed Student t-test.

[2] = biological target: T2, NMDA (NR1/NR2A) receptors (Rattus norvegicus, UniProt P35439+Q00959); experiment: NMDA receptor two-electrode voltage clamp in oocytes at saturated drug concentration; format: cell-based; conditions: for NMDA % Direct Effect: drug response without receptor agonist; for NMDA % Direct Effect / NMDA % Agonist Effect: percent of control agonist peak, mean ±SEM, 5-6 oocytes, saturated drug; for NMDA % Agonist Effect: drug with glutamate and glycine; for NMDA Drug Response: drug+agonist versus control agonist peak; for NMDA receptor modulation (in words): saturating aqueous concentration; for direct effect on NMDA receptors (in words): without glutamate and glycine agonist
T2 construct: expressed in transfected cells; host or cells: Xenopus laevis oocytes (RNA injection, 1:1)
Description: as §1, §2, §3
Briefly, baseline perfusion solutions were the same as for GABAA with the substitution of equimolar BaCl2 for calcium salts and the addition of 0.1 mM EGTA; this constituted barium frog Ringer's solution (BaFR). Agonist solutions for NMDA studies also contained 0.1 mM glutamate (E) and 0.01 mM glycine (G) to constitute a BaFREG solution.
The syringe pump and perfusion chamber apparatus as well as the clamp holding potential and baseline-agonist exposure protocols were identical to that described for the GABAA studies. The same test compounds, concentrations, and preparative methods were used in NMDA voltage clamp studies as in the GABAA voltage clamp studies (Table 2).
as §4

T2 sequence (Q00959 23-1464, other chains not shown): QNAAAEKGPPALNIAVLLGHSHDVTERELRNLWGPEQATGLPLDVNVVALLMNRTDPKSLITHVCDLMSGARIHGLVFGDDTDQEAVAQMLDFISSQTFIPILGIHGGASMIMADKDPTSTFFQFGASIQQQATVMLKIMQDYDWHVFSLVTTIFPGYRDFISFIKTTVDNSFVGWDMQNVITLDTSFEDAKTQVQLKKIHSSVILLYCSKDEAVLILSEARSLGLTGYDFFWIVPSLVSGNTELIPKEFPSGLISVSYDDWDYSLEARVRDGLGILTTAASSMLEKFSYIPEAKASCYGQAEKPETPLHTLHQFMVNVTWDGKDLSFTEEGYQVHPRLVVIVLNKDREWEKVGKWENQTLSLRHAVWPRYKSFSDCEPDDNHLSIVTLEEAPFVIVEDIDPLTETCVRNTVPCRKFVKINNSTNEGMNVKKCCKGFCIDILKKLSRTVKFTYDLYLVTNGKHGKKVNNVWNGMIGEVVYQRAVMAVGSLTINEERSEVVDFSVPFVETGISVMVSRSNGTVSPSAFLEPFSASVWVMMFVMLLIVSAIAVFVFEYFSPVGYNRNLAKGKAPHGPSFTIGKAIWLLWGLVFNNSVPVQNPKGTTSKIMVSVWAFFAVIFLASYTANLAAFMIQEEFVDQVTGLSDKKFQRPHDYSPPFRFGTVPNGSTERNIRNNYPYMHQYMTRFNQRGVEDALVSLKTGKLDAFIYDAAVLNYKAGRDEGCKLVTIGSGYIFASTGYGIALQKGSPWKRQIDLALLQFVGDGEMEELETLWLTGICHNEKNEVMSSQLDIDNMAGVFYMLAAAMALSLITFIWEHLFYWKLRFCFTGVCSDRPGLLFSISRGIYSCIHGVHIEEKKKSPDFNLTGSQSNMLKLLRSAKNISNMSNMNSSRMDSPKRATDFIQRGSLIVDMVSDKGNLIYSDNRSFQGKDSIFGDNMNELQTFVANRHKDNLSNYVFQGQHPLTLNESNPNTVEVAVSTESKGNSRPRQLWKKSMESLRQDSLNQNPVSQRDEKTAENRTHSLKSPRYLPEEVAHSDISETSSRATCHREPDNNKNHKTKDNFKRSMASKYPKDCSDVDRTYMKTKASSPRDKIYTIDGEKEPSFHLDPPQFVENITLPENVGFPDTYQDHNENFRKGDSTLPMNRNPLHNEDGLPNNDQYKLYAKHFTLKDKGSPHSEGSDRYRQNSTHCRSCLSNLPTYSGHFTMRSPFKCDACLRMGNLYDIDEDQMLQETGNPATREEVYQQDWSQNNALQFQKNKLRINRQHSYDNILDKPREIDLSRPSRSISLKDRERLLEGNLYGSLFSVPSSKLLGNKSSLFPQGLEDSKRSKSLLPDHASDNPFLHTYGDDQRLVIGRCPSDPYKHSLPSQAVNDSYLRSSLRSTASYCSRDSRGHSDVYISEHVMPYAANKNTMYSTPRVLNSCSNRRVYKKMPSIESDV
T1 sequence (P14867 28-456): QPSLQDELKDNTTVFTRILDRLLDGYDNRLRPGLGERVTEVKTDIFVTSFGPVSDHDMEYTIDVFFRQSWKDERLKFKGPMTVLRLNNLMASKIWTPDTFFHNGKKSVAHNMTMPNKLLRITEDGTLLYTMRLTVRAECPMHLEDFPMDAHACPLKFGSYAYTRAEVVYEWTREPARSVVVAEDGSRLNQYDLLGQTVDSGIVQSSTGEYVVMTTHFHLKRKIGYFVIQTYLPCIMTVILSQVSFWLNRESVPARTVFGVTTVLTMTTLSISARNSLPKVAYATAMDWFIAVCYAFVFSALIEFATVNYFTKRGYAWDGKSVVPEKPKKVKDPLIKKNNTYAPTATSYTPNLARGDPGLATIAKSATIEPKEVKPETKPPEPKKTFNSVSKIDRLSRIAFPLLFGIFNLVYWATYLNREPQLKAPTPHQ
T1 sequence (P63138 25-474 limits assumed): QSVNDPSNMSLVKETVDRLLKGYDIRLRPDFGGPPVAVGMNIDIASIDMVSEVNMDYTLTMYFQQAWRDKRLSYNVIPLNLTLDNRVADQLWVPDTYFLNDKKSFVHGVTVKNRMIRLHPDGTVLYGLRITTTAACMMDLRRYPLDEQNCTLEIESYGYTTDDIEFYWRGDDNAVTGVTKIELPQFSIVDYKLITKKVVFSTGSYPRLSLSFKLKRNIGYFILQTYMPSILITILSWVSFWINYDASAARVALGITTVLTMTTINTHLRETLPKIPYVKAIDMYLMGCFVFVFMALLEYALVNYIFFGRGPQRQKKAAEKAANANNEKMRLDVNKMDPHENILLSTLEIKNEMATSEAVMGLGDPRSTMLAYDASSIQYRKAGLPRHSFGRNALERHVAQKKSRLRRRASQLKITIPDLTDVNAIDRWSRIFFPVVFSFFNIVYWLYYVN
T1 sequence (P18508 39-466): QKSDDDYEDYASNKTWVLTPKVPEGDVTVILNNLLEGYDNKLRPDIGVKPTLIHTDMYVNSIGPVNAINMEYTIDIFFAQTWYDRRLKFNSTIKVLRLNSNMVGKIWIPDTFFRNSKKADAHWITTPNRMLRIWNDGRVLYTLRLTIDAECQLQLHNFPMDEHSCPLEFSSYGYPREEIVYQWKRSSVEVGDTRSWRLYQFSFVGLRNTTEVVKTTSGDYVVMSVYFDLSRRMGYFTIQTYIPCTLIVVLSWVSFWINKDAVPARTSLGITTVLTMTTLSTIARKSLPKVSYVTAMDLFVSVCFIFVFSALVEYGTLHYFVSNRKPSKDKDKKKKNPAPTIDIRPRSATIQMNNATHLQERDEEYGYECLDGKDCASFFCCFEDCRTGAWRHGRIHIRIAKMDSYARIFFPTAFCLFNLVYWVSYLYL

Row | Compound | GABAA % Direct Effect [1] | GABAA % Agonist Effect [1] | GABAA Drug Response [1] | NMDA % Direct Effect [2] | NMDA % Agonist Effect [2] | NMDA Drug Response [2] | GABAA receptor modulation (in words) ([1]; saturating aqueous concentration) | NMDA receptor modulation (in words) [2] | NMDA receptor current inhibition ([2]; hydrocarbons prior to the cut-off, saturated) | direct effect on NMDA receptors (in words) [2]
1 | CCc1cccc(CC)c1 [1,3-diethylbenzene] | none | 305 ± 24% | + (potentiation (+) for drug+agonist responses greater than the control agonist peak) | none | 101 ± 2% | 0 (no response (0) for drug+agonist responses that differ by <10% from the control agonist peak) |  |  |  | 
2 | Cc1cccc(C)c1 [1,3-dimethylbenzene] | none | 366 ± 21% | + (potentiation (+) for drug+agonist responses greater than the control agonist peak) | none | 58 ± 3% |  |  |  |  | 
3 | CCCCCCSCC [1-(ethylthio)-hexane] | none | 350 ± 57% | + (potentiation (+) for drug+agonist responses greater than the control agonist peak) | none | 87 ± 1% |  |  |  |  | 
4 | CCCCCCCCSCC [1-(ethylthio)-octane] | none | 120 ± 3% | + (potentiation (+) for drug+agonist responses greater than the control agonist peak) | none | 101 ± 1% | 0 (no response (0) for drug+agonist responses that differ by <10% from the control agonist peak) |  |  |  | 
5 | OCC(F)(F)C(F)(F)C(F)(F)C(F)(C(F)(F)F)C(F)(F)F [1-Hexanol, 2,2,3,3,4,4,5,6,6,6-decafluoro-5-(trifluoromethyl)-] |  |  |  |  |  |  | GABA-A receptor agonist | weak NMDA receptor antagonist |  | 
6 | CCCCCCCCCCO [1-decanol] | none | 386 ± 20% | + (potentiation (+) for drug+agonist responses greater than the control agonist peak) | none | 70 ± 3% |  |  |  |  | 
7 | CCCCCCCCCCCCO [1-dodecanol] | none | 177 ± 4% | + (potentiation (+) for drug+agonist responses greater than the control agonist peak) | none | 98 ± 1% | 0 (no response (0) for drug+agonist responses that differ by <10% from the control agonist peak) |  |  |  | 
8 | CCCCCCCCCCCCCCCCCCCCN [1-eicosanamine] | none | 166 ± 7% | + (potentiation (+) for drug+agonist responses greater than the control agonist peak) | none | 108 ± 1% | 0 (no response (0) for drug+agonist responses that differ by <10% from the control agonist peak) |  |  |  | 
9 | CCCCCCCCF [1-fluoroctane] | none | 182 ± 18% | + (potentiation (+) for drug+agonist responses greater than the control agonist peak) | none | 98 ± 1% | 0 (no response (0) for drug+agonist responses that differ by <10% from the control agonist peak) |  |  |  | 
10 | CCCCCCF [1-fluorohexane] | 11 ± 4% | 207 ± 13% | + (potentiation (+) for drug+agonist responses greater than the control agonist peak) | none | 101 ± 1% | 0 (no response (0) for drug+agonist responses that differ by <10% from the control agonist peak) |  |  |  | 
11 | CCCCCF [1-fluoropentane] | none | 539 ± 35% | + (potentiation (+) for drug+agonist responses greater than the control agonist peak) | none | 76 ± 2% |  |  |  |  | 
12 | C#CCCCCC [1-heptyne] | none | 172 ± 8% | + (potentiation (+) for drug+agonist responses greater than the control agonist peak) | none | 68 ± 10% |  |  |  |  | 
13 | CCCCCCS [1-hexanethiol] | 8 ± 2% | 290 ± 41% | + (potentiation (+) for drug+agonist responses greater than the control agonist peak) | none | 102 ± 3% | 0 (no response (0) for drug+agonist responses that differ by <10% from the control agonist peak) |  | did not |  | 
14 | C=CCCCC [1-hexene] | none | 132 ± 2% | + (potentiation (+) for drug+agonist responses greater than the control agonist peak) | none | 97 ± 0% | 0 (no response (0) for drug+agonist responses that differ by <10% from the control agonist peak) |  |  |  | 
15 | C#CCCCC [1-hexyne] | 5 ± 2% | 418 ± 21% | + (potentiation (+) for drug+agonist responses greater than the control agonist peak) | none | 41 ± 6% |  |  |  |  | 
16 | CCCCCCCCCCCCCCCCCCN [1-octadecanamine] | none | 146 ± 5% | + (potentiation (+) for drug+agonist responses greater than the control agonist peak) | none | 73 ± 4% |  |  |  |  | 
17 | C#CCCCCCC [1-octyne] | none | 259 ± 11% | + (potentiation (+) for drug+agonist responses greater than the control agonist peak) | none | 96 ± 2% | 0 (no response (0) for drug+agonist responses that differ by <10% from the control agonist peak) |  |  |  | 
18 | CCCCCS [1-pentanethiol] | 22 ± 8% | 466 ± 57% | + (potentiation (+) for drug+agonist responses greater than the control agonist peak) | none | 85 ± 4% |  |  | inhibited NMDA receptors | 15% | 
19 | C=CCCC [1-pentene] | 2 ± 3% | 453 ± 38% | + (potentiation (+) for drug+agonist responses greater than the control agonist peak) | none | 69 ± 1% |  |  |  |  | 
20 | CCCCCCCCCCCO [1-undecanol] | none | 181 ± 13% | + (potentiation (+) for drug+agonist responses greater than the control agonist peak) | none | 101 ± 2% | 0 (no response (0) for drug+agonist responses that differ by <10% from the control agonist peak) |  |  |  | 
21 | CN1CCOCC1 [4-methylmorpholine] |  |  |  |  |  |  |  |  |  | direct activation of NMDA receptors
22 | N-methylpiperadine |  |  |  |  |  |  |  |  |  | direct activation of NMDA receptors
